Results from US20210369677A1, “SMALL MOLECULE ACTIVATORS OF POLYCYSTIN-2 (PKD2) AND USES THEREOF” (Northwestern University, priority 2020, published 2021).

Biological target: T1, polycystin-2 (Homo sapiens, UniProt Q13563, C437S/C632S)
T1 construct: expressed in transfected cells
T1 sequence (Q13563 1-968 C437S/C632S): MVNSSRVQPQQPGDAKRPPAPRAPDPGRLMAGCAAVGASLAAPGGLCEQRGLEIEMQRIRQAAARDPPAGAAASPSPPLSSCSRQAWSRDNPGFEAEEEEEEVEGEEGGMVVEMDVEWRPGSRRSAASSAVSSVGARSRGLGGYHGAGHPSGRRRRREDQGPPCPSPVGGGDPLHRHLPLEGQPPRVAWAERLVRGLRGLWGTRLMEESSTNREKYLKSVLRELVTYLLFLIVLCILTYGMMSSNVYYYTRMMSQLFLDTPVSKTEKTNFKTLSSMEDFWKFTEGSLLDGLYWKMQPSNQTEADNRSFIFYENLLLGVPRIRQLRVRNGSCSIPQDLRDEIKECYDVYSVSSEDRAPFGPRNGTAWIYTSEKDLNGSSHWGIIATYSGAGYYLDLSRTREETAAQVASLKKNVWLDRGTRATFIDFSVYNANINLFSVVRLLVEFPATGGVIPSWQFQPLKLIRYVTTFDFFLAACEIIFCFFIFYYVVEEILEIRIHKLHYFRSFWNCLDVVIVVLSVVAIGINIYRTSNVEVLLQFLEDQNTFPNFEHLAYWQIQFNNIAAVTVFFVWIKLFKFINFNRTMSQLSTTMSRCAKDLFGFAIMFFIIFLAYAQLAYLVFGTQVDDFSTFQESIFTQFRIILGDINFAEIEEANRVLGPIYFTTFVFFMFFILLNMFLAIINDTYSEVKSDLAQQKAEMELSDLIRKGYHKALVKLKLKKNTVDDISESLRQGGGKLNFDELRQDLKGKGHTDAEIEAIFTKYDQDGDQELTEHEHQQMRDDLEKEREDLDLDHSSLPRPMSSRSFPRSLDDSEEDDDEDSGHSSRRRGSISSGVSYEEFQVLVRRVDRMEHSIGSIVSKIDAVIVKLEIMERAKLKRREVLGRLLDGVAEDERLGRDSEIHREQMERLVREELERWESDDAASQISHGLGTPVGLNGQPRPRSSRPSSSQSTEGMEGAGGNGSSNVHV
Type: cell-based
Conditions: C437S:C632S double mutant
From the text: Generation of HEK PKD2^Null cells line and the stable expression PKD2 variants. To generate the HEK PKD2^Null cell lines, we used a CRISPR/Cas9 gene editing kit available from Addgene (kit 1000000055). HEK 293 cells were electro-transfected with sgRNAs (caccg[…] and aaac[…]c) with the All-in-one Cas9 plasmid. […] Cells generated from single cell clones were selected after 4 weeks of expansion in a 96-wells plate. […] To generate the WT and variant PKD2 GFP or mCherry C-terminally tagged variant cell lines, the hPKD gene was subcloned into lentiviral pLVX-mcherry-N1 (Clontech) or pLVX-GFP-N1 (Clontech) vector using the Gibson assembly method. A linker encoding for six glycine residues was added between the PKD2 gene and the C-terminal tags, and missense variants were generated using standard, site-directed mutagenesis. The third-generation lentiviral packaging plasmids used for stable expression contained: pMDLg/pRRE (Addgene), […] pRSV-Rev (Addgene), and envelope expressing plasmid pMD2.G (Addgene). LentiX-293T cells (Takara) were transfected with polyethylineimine (Polysciences) at a 4:1:1:1 ratio of the transgene and viral packaging constructs. Supernatants were collected 48 and 72 hours post transfection and filtered through a 0.45 μm syringe filter. Lentiviral supernatant was concentrated 100 times using 1 volume of PEG-it (System Biosciences) virus precipitation solution and 4 volume of lentivirus-containing supernatant. The PEG-it and supernatant mixture were kept at 4 degrees for 24 hours and centrifuged at 1500 rpm for 30 minutes. The pellet containing lentivirus was resuspended with 1/100th volume of PBS of the original supernatant volume. HEK cells were infected with the lentivirus supernatant; PKD2-GFP or PKD2-mCherry expression was selected using culture media containing puromycin (2 μg/ml) for 30 to 90 days. Cells were then fluorescence-activated cell sorted (BD FacsMelody) at 5000 to 10,000 counts per minute to enrich for the transgene expression. Stable cell lines were cultured in Dulbecco's modified essential medium (DMEM) supplemented with 10% fetal bovine serum (FBS) and 100 units/ml penicillin, 100 units/ml streptomycin and 1 μg/ml puromycin selection antibiotic.
Electrophysiology. Ciliary ion currents were recorded using borosilicate glass electrodes polished to resistances of 14-22 MΩ using the cilium patch method previously described^32. Whole cell electrodes used to measure poly cystin-2L1 currents were fire polished to 1.5-4 MΩ resistances. Unless otherwise stated, whole cilia ionic currents were recorded in symmetrical [Na^+]. The pipette standard internal solution contained (in mM): 90 NaMES, 10 NaCl, 10 HEPES, 10 Na4-BAPTA (Glycine, N, N′-[1,2-ethanediylbis(oxy-2,1-phenylene)]bis[N-(carboxymethyl)]-,tetrasodium); pH was adjusted to 7.3 using NaOH. Standard bath solution contained 140 NaCl, 10 HEPES, 1.8 CaCl2); pH 7.4. All solutions were osmotically balanced to 295 (±6) mOsm with mannitol. Extracellular solutions containing TCEP and GSH were used within six hours of formulation. Data were collected using an Axopatch 200B patch clamp amplifier, Digidata 1440A, and pClamp 10 software. Whole-cilium and excised patch currents were digitized at 25 kHz and low-pass filtered at 10 kHz. In the whole cilium configuration, the holding potential was −60 mV and then depolarized using a 400 ms voltage ramp from −100 mV to 100 mV. The whole cell recordings of polycystin-2L1 currents were either activated by the same ramp protocol or by 100 ms depolarizations to 100 mV from a −100 mV holding potential.

SMILES | Effect on C437S:C632S double mutant channel cilia current
N[C@@H](CCC(=O)N[C@@H](CS)C(=O)NCC(=O)O)C(=O)O [GSH, reduced glutathione] | retained its sensitivity
O=C(O)CCP(CCC(=O)O)CCC(=O)O [TCEP, tris-2-carboxyethyl phosphine] | retained its sensitivity
